Measurements taken from patent publication EP4563579A1, “MACROCYCLIC EGFR INHIBITOR, AND PREPARATION METHOD THEREFOR AND PHARMACEUTICAL USE THEREOF” (Abbisko Therapeutics Co., Ltd., priority 2022, dated 2024).

Assays:
[1] = system: Ba/F3 EGFR-L858R-C797S (LC); assay: Cell proliferation assay (CellTiter-Glo), Ba/F3 LC; format: cell-based; conditions: Mus musculus, BaF3; Ba/F3 EGFR-L858R-C797S cells, 72 hour incubation, CTG readout
How it was run: (§1)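 Cells seeded overnight, then exposed 72 h at 37 °C, 5% CO2 to nine 3.16-fold dilutions (top final 10 µM, 0.1% DMSO), triplicate wells. Viability read by CellTiter-Glo luminescence, with a T0 plate read at dosing; IC50 (nM) by non-linear sigmoidal regression.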

[2] = system: Ba/F3 EGFR-DEL19-C797S (DC); assay: Cell proliferation assay (CellTiter-Glo), Ba/F3 DC; format: cell-based; conditions: Mus musculus, BaF3; Ba/F3 EGFR-DEL19-C797S cells, 72 hour incubation, CTG readout
Method: (§2) • DMEM Medium (Gibco, Cat#11965118) • RPMI1640 Medium (Gibco, Cat#11875119) • Fetal Bovine Serum (FBS) (GBICO, Cat#10099-141) • CellTiter-Glo® Luminescent Cell Viability Assay Kit (Promega, Cat#G7572) 96-well, Black, Clear Flat Bottom Plate (Corning®, Cat# 3603)
(§3) • SpectraMax Multimode Microplate Reader MD, 2104-0010A; • CO2 Incubator, Thermo Scientific 3100 Series; • Biosafety Cabinet, Thermo Scientific, 1300 Series A2; • Inverted Microscope, Olympus, CKX41SF; • Siemens Refrigerator, KK25E76TI.
(§4) • 1. Cell Culture and Inoculation: • (1) Harvest cells in a logarithmic growth phase and count the cells using a […]. Test cell viability using a trypan blue exclusion method to ensure that cell viability is above 90%. • (2) Adjust the cell concentration to desired final density; and add 90 µL of cell suspension to a 96-well plate. • (3) Incubate the cells overnight at 37°C, under 5% CO2 and 95% humidity in the 96-well plate. • 2. T0 Reference Data: • (1) Add 10 µL PBS to each well of the T0 plate containing cells. • (2) Thaw the CTG reagent and equilibrate the plate to room temperature for 30 minutes. • (3) Add an equal volume of CTG solution to each well. • (4) Lyse cells by shaking on an orbital shaker for 5 minutes. • (5) Leave the plate at room temperature for 20 minutes to stabilize the luminescence signal. • (6) Read the T0 […]. • 3. Compound Dilution and Addition • (1) Add a corresponding volume of DMSO to a corresponding compound powder according to the compound information sheet to prepare a 10 mM stock solution. • (2) Prepare 1000-fold and 3.16-fold diluted compound solutions. • (3) Dilute the 1000× diluted compound solution 100-fold with PBS to prepare a 10-fold compound solution, with a maximum concentration of 10 µM, nine concentrations and 3.16-fold dilution. Then add 10 µL of the drug solution concentration to individual wells of the 96-well plate seeded with cells. Test each compound concentration in triplicate wells, and the final DMSO concentration is 0.1%. • (4) Incubate the cells in the 96-well plate containing the drug compounds at 37°C, under 5% CO2, and 95% humidity for an additional 72 hour period prior to performing the CTG analysis. • 4. Fluorescence Signal Reading • (1) Thaw the CTG reagent and equilibrate the plate to room temperature for 30 minutes. • (2) Add an equal volume of CTG solution to each well. • (3) Lyse cells by shaking on an orbital shaker for 5 minutes. • (4) Leave the plate at room temperature for 20 minutes to stabilize the […]. • (5) Read fluorescence value. • 5. Data Processing
(§5) Analyze the data by using GraphPad Prism 7.0 software, and use Non-linear S-curve regression to fit the dose-response curves, to calculate the IC50 values (in nM). The specific experiment results are presented in Table 1: [formula] Table 1: Biology Test Results

[3] = system: Ba/F3 EGFR-L858R-T790M-C797S (LTC); assay: Cell proliferation assay (CellTiter-Glo), Ba/F3 LTC; format: cell-based; conditions: Mus musculus, BaF3; Ba/F3 EGFR-L858R-T790M-C797S cells, 72 hour incubation, CTG readout
How it was run: as §1

[4] = system: Ba/F3 EGFR-DEL19-T790M-C797S (DTC); assay: Cell proliferation assay (CellTiter-Glo), Ba/F3 DTC; format: cell-based; conditions: Ba/F3 EGFR-DEL19-T790M-C797S cells, 72 hour incubation, CTG readout; read-out: IC50 BaF3 DTC
Method: as §2, §3, §4, §5

[5] = Pharmacokinetic experiment in mice; format: in vivo; conditions: ICR mice; for AUC(0-t) / Cmax / half-life: male, mouse, single oral administration (PO), 10 mg/kg, plasma
Text: The purpose of this trial is to study the pharmacokinetic behavior of some compounds of the present invention, and the administration method is: Single oral administration (PO) to ICR mice.
The compounds used in this trial are from the compounds in the specific examples of the present invention and the listed positive compounds.
ICR mice male N=9 original source: Shanghai Sippr-Bk Lab Animal Co., Ltd.
The compounds are weighed and dissolved in the corresponding solution (10% PG + 10% Solutol® + 80% pH3 citrate buffer). The mixture is then shaken well and sonicated to prepare a 1 mg/mL stock solution. Nine mice are orally administered at a dose of 10 mg/kg (or IV 2 mg/kg) after an overnight fast.
About 90 µL of blood is collected via the submandibular vein per time point, heparin sodium anticoagulant is added, the sample is placed on ice after collection, and plasma is centrifuged within 1 hour (centrifugation conditions: 8,000 rpm, 6 minutes, 2-8°C). The blood collection timepoints are 0, 0.25, 0.5, 1, 2, 4, 6, 8 and 24 h. The samples are stored in a -20°C refrigerator.
The plasma sample is 40 µL, 160 µL of ice-cold acetonitrile containing internal standard is added, vortexed for 3 minutes, and centrifuged at 11,000 rpm for 5 minutes. 100 µL of the supernatant is taken and added to 100 µL of water, 5 µL of the sample is taken and injected into LC/MS/MS for analysis.

A431 WT = assay: Cell proliferation assay (CellTiter-Glo), A431 WT; format: cell-based; conditions: Homo sapiens, A-431; A431 WT cells, 72 hour incubation, CTG readout
How it was run: as §1

| Compound | IC50 [1] | IC50 [2] | IC50 [3] | IC50 [4] | AUC(0-t) [5] | Cmax [5] | half-life [5] | IC50 (A431 WT) | Oral F ([5]; PO 10 mg/kg (IV 2 mg/kg)) |
| --- | --- | --- | --- | --- | --- | --- | --- | --- | --- |
| CN1CCC(C#Cc2nn3c4cc(ncc24)Nc2ccnc(n2)-c2cnn(C)c2OCC2(CCCC2)C3)CC1 [Example 1, 1'-methyl-3'-((1-methylpiperidin-4-yl)ethynyl)spiro(cyclopentane-1,6'-8-oxa-3-aza-4(6,1)-pyrazolo[4,3-c]pyridina-2(2,4)-pyrimidina-1(4,5)-pyrazolacyclooctaphane)] | 17.4 nM | 7.9 nM | 10.5 nM | 7.2 nM | 1030 ng·h/mL | 88.2 ng/mL | 3.5 h | 323 nM |  |
| CN1CCC(C#Cc2nn3c4cc(ncc24)Nc2ccnc(n2)-c2cnn(C)c2OCC2(CCCCC2)C3)CC1 [Example 3, 1'-methyl-3'-((1-methylpiperidin-4-yl)ethynyl)spiro(cyclohexane-1,6'-8-oxa-3-aza-4(6,1)-pyrazolo[4,3-c]pyridina-2(2,4)-pyrimidina-1(4,5)-pyrazolacyclooctaphane)] | 30.6 nM | 19.4 nM | 10.4 nM | 6.8 nM | 3920 ng·h/mL | 307 ng/mL | 5.6 h | 439 nM |  |
| Cn1ncc2c1OCC1(CCCC1)Cn1nc(N3CC[C@@H](C(C)(C)O)C3)c3cnc(cc31)Nc1ccnc-2n1 [Example 13, (R)-2-(1-(1'-methylspiro[cyclopentane-1,6'-8-oxa-3-aza-4(6,1)-pyrazolo[4,3-c]pyridina-2(2,4)-pyrimidina-1(4,5)-pyrazolacyclooctaphane]-3'-yl)pyrrolidin-3-yl)propan-2-ol] | 25.5 nM | 14.8 nM | 14.9 nM | 8.4 nM | 8870 ng·h/mL | 1540 ng/mL | 2.2 h | 794 nM |  |
| Cn1ncc2c1OCC1(CCCC1)Cn1nc(N3CC[C@H](CS(=O)(=O)C(F)(F)F)C3)c3cnc(cc31)Nc1ccnc-2n1 [Example 14, (S)-1'-methyl-3'-(3-(((trifluoromethyl)sulfonyl)methyl)pyrrolidin-1-yl)spiro[cyclopentane-1,6'-8-oxa-3-aza-4(6,1)-pyrazolo[4,3-c]pyridina-2(2,4)-pyrimidina-1(4,5)-pyrazolacyclooctaphane]] | 5 nM | 2.8 nM | 3.6 nM | 3.5 nM | 5320 ng·h/mL | 882 ng/mL | 2.4 h | 1720 nM |  |
| CCS(=O)(=O)C[C@@H]1CCN(c2nn3c4cc(ncc24)Nc2ccnc(n2)-c2cnn(C)c2OCC2(CCCC2)C3)C1 [Example 29, (R)-3' -(3-((ethylsulfonyl)methyl)pyrrolidin-1-yl)-1'-me thylspiro(cyclopentane-1,6' -8-oxa-3-aza-4(6,1)-pyrazolo[4,3-c]pyridina-2(2,4)-pyrimidina-1(4,5)-pyrazolacyclooctaphane)] | 9.6 nM | 1.6 nM | 4 nM | 1.8 nM | 4540 ng·h/mL | 1400 ng/mL | 0.66 h | 622 nM |  |
| Cn1ncc2c1OCC1(CCCC1)Cn1nc(N3CC[C@H](CS(C)(=O)=O)C3)c3cnc(cc31)Nc1ccnc-2n1 [Example 34, (S)-1'methyl-3'-(3-((methylsulfonyl)methyl)pyrrolidin-1-yl)spiro(cyclopentane-1,6 '-8-oxa-3-aza-4(6,1)-pyrazolo[4,3-c]pyridina-2(2,4)-pyrimidina-1(4,5)-pyrazolacyclooctaphane)] | 2.7 nM | 0.7 nM | 1.4 nM | 1.6 nM | 2390 ng·h/mL | 694 ng/mL | 4.7 h | 375 nM |  |
| CCS(=O)(=O)C[C@H]1CCN(c2nn3c4cc(ncc24)Nc2ccnc(n2)-c2cnn(C)c2OCC2(CCCC2)C3)C1 [Example 35, (S)-3'-(3-((ethylsulfonyl)methyl)pyrrolidin-1-yl)-1'-met hylspiro(cyclopentane-1,6'-8-oxa-3-aza-4(6,1)-pyrazolo [4,3-c]pyridina-2(2,4)-pyrimidina-1(4,5)-pyrazolacyclooctaphane)] | 2.2 nM | 0.9 nM | 1 nM | 0.7 nM | 5570 ng·h/mL | 1500 ng/mL | 2.6 h | 345 nM | 81.5% |
| CCS(=O)(=O)C[C@H]1CCN(c2nn3c4cc(ncc24)Nc2ccnc(n2)-c2cnn(C)c2OCC2(CCCCC2)C3)C1 [Example 37, (S)-1'-methyl-3'-(3-((ethylsulfonyl)methyl)pyrrolidin-1-yl)spiro(cyclohexane-1,6'-8-oxa-3-aza-4(6,1)-pyrazolo [4,3-c]pyridina-2(2,4)-pyrimidina-1(4,5)-pyrazolacyclooctaphane)] | 15.8 nM | 6.1 nM | 6.4 nM | 3.2 nM | 10100 ng·h/mL | 2070 ng/mL | 3.1 h | 554 nM |  |
| CC(C)S(=O)(=O)C[C@H]1CCN(c2nn3c4cc(ncc24)Nc2ccnc(n2)-c2cnn(C)c2OCC2(CCCC2)C3)C1 [Example 39, (S)-3'-(3-((isopropylsulfonyl)methyl)pyrrolidin-1-yl)-1' -methylspiro(cyclopentane-1,6'-8-oxa-3-aza-4(6,1)-pyrazolo[4,3-c]pyridina-2(2,4)-pyrimidina-1(4,5)-pyrazolacyclooctaphane)] | 2.1 nM | 2.3 nM | 0.8 nM | 1.5 nM | 6080 ng·h/mL | 1560 ng/mL | 3 h | 446 nM |  |
| Cn1ncc2c1OCC1(CCCCC1)Cn1nc(N3CC[C@H](CS(=O)(=O)C4CC4)C3)c3cnc(cc31)Nc1ccnc-2n1 [Example 41, (S)-3'-(3-((cyclopropylsulfonyl)methyl)pyrrolidin-1-yl)-1'-methylspiro(cyclohexane-1,6'-8-oxa-3-aza-4(6,1)-pyrazolo[4,3-c]pyridina-2(2,4) -pyrimidina-1(4,5)-pyrazolacyclooctaphane)] | 12.9 nM | 15.9 nM | 3.1 nM | 5.2 nM | 7110 ng·h/mL | 1920 ng/mL | 2.3 h | 564 nM |  |
